The subject of series [1] is Trypanosoma cruzi. The series is described as follows: microbe, parasite or virus in culture. It counts as functional, organism-based, Tulahuen LacZ, Clone C4.
A short description of series [2]: (§1) DNDI: Cytotoxicity against L-6 rat myoblasts from skeletal muscle cells. The note with it: L6 rat skeletal muscle myoblast cells.
The test system of a further series is L6. Described as §1. The settings on record: L6 rat skeletal muscle myoblast cells.
Series [3] concerns Trypanosoma cruzi. The series is described as follows: microbe, parasite or virus in culture. Type of series: functional, Tulahuen LacZ, Clone C4.
Setting [4] is: Trypanosoma cruzi, Tulahuen LacZ, Clone C4.

SMILES strings stand for the structures. Values joined by “and” are separate entries in the source; they are usually repeats but may differ in a detail not shown here. Equal entries are not always repeated.

As to `CS(=O)(=O)c1ccc(N2CCC(NC(c3cccnc3)c3ccc(Cl)cc3F)CC2)cc1` (stereo not drawn), the IC50 in the series on Trypanosoma cruzi [1] is 2.6 nM and 6 nM; in series [2] (IC50) it was 49700 nM; with L6, 26600 nM. Further, the results for the IC90 in the series on Trypanosoma cruzi [3] and in the series on Trypanosoma cruzi [3] (setting [4]) were 8 nM and 7.5 nM, respectively.
With `Fc1cc(Cl)ccc1C(NC1CCN(c2ccc(C(F)(F)F)cc2F)CC1)c1cccnc1` (stereo not drawn), the IC50 with Trypanosoma cruzi [1] is 8 nM and 16.5 nM; in series [2] (IC50) it was 51500 nM; in the series with L6, 53000 nM. Further, the IC90 in the series on Trypanosoma cruzi [3] stood at 31.5 nM; in the series on Trypanosoma cruzi [3] (setting [4]) it was 24 nM.
In the case of `FC(F)(F)c1ccc(N2CCC(NC(c3ccc(Cl)cc3)c3cccnc3)CC2)cn1` (stereo not drawn), the IC50 in the series with Trypanosoma cruzi [1] worked out at 6.6 nM; in the series on Trypanosoma cruzi [1] (setting [4]), 7 nM; in series [2] (IC50) it was 39600 nM; with L6, 54400 nM. Also, the IC90 is 16 nM in the series on Trypanosoma cruzi [3] and 17.5 nM in the series with Trypanosoma cruzi [3] (setting [4]).
Regarding `CC(C)Oc1ccc(C(O)(c2ccc(Cl)cc2)c2cccnc2)cc1` (stereo not drawn), the IC50 is 8.2 nM and 2 nM in the series on Trypanosoma cruzi [1]; 52000 nM in series [2]; 56600 nM with L6. In addition, in the series with Trypanosoma cruzi [3], the IC90 is 18 nM and 6 nM.
For `O=C(NC1CCN(C(c2ccc(C(F)(F)F)cc2)c2cccnc2)CC1)c1c(F)cccc1F` (stereo not drawn), the IC50 in the series on Trypanosoma cruzi [1] was 8.5 nM; with Trypanosoma cruzi [1] (setting [4]) it was 16.5 nM; in series [2] (IC50) it was 56700 nM; with L6, more than 100000 nM. Moreover, the values for the IC90 in the series with Trypanosoma cruzi [3] and in the series with Trypanosoma cruzi [3] (setting [4]) were 37 nM and 24 nM, respectively.
Turning to `N#Cc1cccc(N2CCC(NC(c3cccnc3)c3ccc(Cl)cc3F)CC2)c1` (stereo not drawn), the IC50 with Trypanosoma cruzi [1] came to 12.5 nM; in the series on Trypanosoma cruzi [1] (setting [4]), 21 nM; in series [2] (IC50), 55400 nM; with L6, 32200 nM. Moreover, the values for the IC90 with Trypanosoma cruzi [3] and in the series with Trypanosoma cruzi [3] (setting [4]) were 34 nM and 37 nM, respectively.
On to `Fc1cc(Cl)ccc1C(NC1CCN(c2ccc(C(F)(F)F)cc2)CC1)c1cccnc1` (stereo not drawn), for which the IC50 with Trypanosoma cruzi [1] is 11 nM and 10.5 nM; in the series on Trypanosoma cruzi [1] (setting [4]) it was 9.5 nM; in series [2] (IC50), 55700 nM; with L6, 52400 nM. The IC90 in the series with Trypanosoma cruzi [3] was 37.5 nM and 34 nM; in the series on Trypanosoma cruzi [3] (setting [4]), 29.5 nM.
As to `N#Cc1ccc(C(O)(c2ccc(C(F)(F)F)cc2)c2cccnc2)c(F)c1` (stereo not drawn), the IC50 with Trypanosoma cruzi [1] is 5.5 nM and 1.9 nM; in series [2] (IC50), 77200 nM; in the series on L6, 56100 nM. Further, the IC90 is 9.52 nM in the series with Trypanosoma cruzi [3] and 12.5 nM with Trypanosoma cruzi [3] (setting [4]).
For `FC(F)(F)c1ccc(N2CCC(NC(c3ccc(Cl)cc3)c3cccnc3)CC2)nc1` (stereo not drawn), the IC50 with Trypanosoma cruzi [1] is 19 nM and 46 nM; in series [2] (IC50), 55300 nM; with L6, 62500 nM. Besides, the IC90 in the series on Trypanosoma cruzi [3] came to 90 nM; with Trypanosoma cruzi [3] (setting [4]), 48 nM.

By IC50 is commonly meant the point on the concentration scale where inhibition reaches its midpoint. The low end stands for greater potency, the high end for weaker potency. The IC90 is the point of the concentration-response curve where the effect stands at 90%. The low end stands for an effect from little substance, the high end for a need for much substance.

(Values after ChEMBL document CHEMBL1862790, “Optimisation of fenarimol series for the treatment of Chagas disease”.)
